{"source": "patent US20090176731A1", "about": "(priority 2005, published 2009)", "key": {"[1]": {"system": "HUVEC", "assay": "HUVEC assay, endothelial cell proliferation (WO 00/47212)", "format": "cell-based", "conditions": "Homo sapiens"}, "[2]": {"system": "range of models", "conditions": "once-daily oral administration; cited from earlier work"}, "[3]": {"system": "Calu-6 tumour xenograft", "assay": "in vivo solid tumour model, Calu-6 tumour xenograft (WO 00/47212)", "conditions": "once-daily oral, 28 days"}}, "note": "Where two headings read alike, the source gives them in different places.", "data": [{"compound": "COc1cc2c(Oc3ccc4[nH]c(C)cc4c3F)ncnc2cc1OCCCN1CCCC1", "note": "[AZD2171, 4-(4-fluoro-2-methyl-1H-indol-5-yloxy)-6-methoxy-7-(3-(pyrrolidin-1-yl)propoxy)quinazoline]", "values": [{"measurement": "IC50", "setting": "[1]; HUVEC, basal (unstimulated) proliferation, read-out: IC50 for inhibition of basal endothelial cell proliferation", "result": "> 500000", "unit": "pM"}, {"measurement": "IC50", "setting": "[1]; VEGF-stimulated, HUVEC assay, read-out: IC50 for inhibition of VEGF-stimulated endothelial cell proliferation", "result": "400 ± 200", "unit": "pM"}, {"measurement": "anti-tumour activity in a range of models", "setting": "[2]", "result": "broad-spectrum anti-tumour activity"}, {"measurement": "inhibition of growth of Calu-6 tumour xenograft", "setting": "[3]; 1.5 mg/kg/day, P<0.01", "result": 49, "unit": "%"}, {"measurement": "inhibition of growth of Calu-6 tumour xenograft", "setting": "[3]; 3 mg/kg/day, P<0.00001", "result": 69, "unit": "%"}, {"measurement": "inhibition of growth of Calu-6 tumour xenograft", "setting": "[3]; 6 mg/kg/day, P<0.00001", "result": 91, "unit": "%"}]}]}
